These results are taken from patent US8017124B2, “Use of DMBT1 for capturing sulphate and phosphate group exposing agents” (priority 2004, dated 2011).

Read-outs that look alike come from different tables or passages of the source.

One assay has as its target T1, DMBT1pbs1 (Homo sapiens, UniProt Q9UGM3).
T1 construct: purchased Eurogentec, Belgium
The class given is binding. On the set-up: key: +++: no difference in aggregation compared to reference; ++: moderate inhibition of aggregation over the entire time course or maximal aggregation delayed by 1-5-min compared to reference; +: strong inhibition of aggregation over the entire time course or maximal aggregation delayed by 5-10 min compared to reference; −: complete inhibition of aggregation after 10 min. The procedure: Streptococcus mutans (Ingbritt), Streptococcus gordonii (HG 222 and DSM20568), Escherichia coli (F7 and OM36-1), and Helicobacter pylori (ATCC 43504) were gown and processed as described earlier. Salmonella typhimurium (strain SF1399: wild type; strain SF1195: Rc chemotype; strain SF1567: Rd1 chemotype; strain SF1398: Re chemotype) were kindly provided by Dr. Ben Appelmelk from the Free University of Amsterdam, The Netherlands, and were grown and processed as previously described for E. coli. The bacteria were diluted in the buffers depicted previously to a final OD700 of 0.5 or 1.0 corresponding to about 0.5 and 1.0×10^9 cells/ml respectively.
For quantitative measurements of bacterial aggregation, we added 200 μl peptide stock solution (1 mg/ml in 10% DMSO) diluted with 300 μl TBS containing 0.1% v/v Tween 20 and 1 mM CaCl2 (TBS-TC) to 500 μl of the respective bacterial suspensions to obtain final peptide concentrations of […]. As controls, we used bacterial suspensions, to which 200 μl 10% (v/v %) DMSO in H2O and 300 μl TBS-TC were added. Bacterial aggregation was monitored by measuring the optical density at 700 nm in intervals of 1 min for 1 h in a spectrophotometer (UVICON 930, Kontron Instruments). For the semi-quantitative high-throughput competition assays, we first determined the allowed pH range for DMBT1pbs1-mediated aggregation of S. gordonii and E. coli by using TBS-TC adjusted with either HCl or NaOH. […] For monitoring competitive effects, we preincubated 20 μl of the DMBT1pbs1 stock solution (20 μg) with 20 μl of the respective substance solutions in 48-well microtiter plates at room temperature (RT) for 2 min. As reference served 20 μl 10% (v/v) DMSO solution in H2O mixed with 20 μl of the solvents of the respective substances. Afterwards, 100 μl of S. gordonii or E. coli (resuspended in TBS-TC or TBS-T, respectively, for the calcium-free assays) solution was added simultaneously to each well using a multichannel pipette. Bacterial aggregation was compared to the reference by visual inspection over a time course of 10 min. The scoring system was: (+++) no difference in aggregation compared to reference. (++) moderate inhibition of aggregation over the entire time course or maximal aggregation delayed by 1-5-min compared to reference; (+) strong inhibition of aggregation over the entire time course or maximal aggregation delayed by 5-10 min compared to reference; (−) complete inhibition of aggregation after 10 min. Each experiment was at least done in triplicate.
Sucrose, maltose, dextrose, and the various salts tested were standard reagents obtained from Merck or Sigma. […] The following substances were obtained from Sigma with catalogue numbers in brackets: heparansulfate (H-7640), chondroitinsulfate B (C-3788), azoxymethane (A-9517), N-nitrosodiethlylamine (N-0258), streptococcus sanguis LTA (L-3765), Staphylococcus aureus LTA (L-2515), Escherichia coli LPS (L-3012), Klebsiella pneumoniae LPS (L-1770), Salmonella typhimurium LPS (L-6511), Salmonella minnesota LPS (chemotype Rd1; L-9391), L-α-phosphatidylcholine (P-279), CUROSURF™ with 80 mg/ml phospholipids from pig surfactant (54 mg/ml phosphatidylcholine and 30-5 mg/ml D-palmitoylphosphatidylcholine; overall: 99% polar phospholipids and 1% proteins) was obtained from Dey (Napa; Italy), and sIgA was purchased from Sigma. The dNTPs and the dNTP-Mix were from Roche Diagnostics. The DNA used in all experiments was the 4.7-kb plasmid pEGFP-N1 from Clontech.

For another assay, the system named is Salmonella typhimurium. Put plainly: Salmonella typhimurium binding to immobilized DMBT1 or peptide. To be noted: Rd1 and Re chemotype versus wild type. Here is the method:
Salivary DMBT1 (salivary agglutinin; DMBT1^SAG; hereafter referred to as DMBT1) was obtained from parotid saliva of healthy volunteer donors collected with Lashley cups. For confirmatory experiments of DMBT1 interaction partners, initial studies with Salmonella strains, and HIV studies we used DMBT1 purified to about 95% homogeneity by the procedure described before. The concentration was determined by the BCA Protein Assay Kit (Pierce) according to the instructions of the manufacturer. […] For partial purification, 50 ml parotid saliva was incubated for 0.5 to 1 h in ice water, in order to promote the formation of a precipitate. After centrifugation for 20 min (4° C.; 5,000 g), the pellet was resuspended in 1.0 to 2.5 ml PBS. In order to determine the DMBT1 concentrations within the samples, serial dilutions of the preparations were compared to serial dilutions of purified recombinant DMBT1 (rDMBT1) by ELISA and the adjusted concentrations were confirmed by Western blotting (see below).
Streptococcus mutans (Ingbritt), Streptococcus gordonii (HG 222 and DSM20568), Escherichia coli (F7 and OM36-1), and Helicobacter pylori (ATCC 43504) were gown and processed as described earlier. […]

Assay [1] deals with T2, rDMBT1 binding to HIV-gp120 (Homo sapiens, UniProt Q9UGM3, G1295S/L1336F/T649M).
T2 construct: made in house; host or cells: rDMBT1 from T-REx-CHO
T2 sequence (Q9UGM3 20-2413 T649M/G1295S/L1336F): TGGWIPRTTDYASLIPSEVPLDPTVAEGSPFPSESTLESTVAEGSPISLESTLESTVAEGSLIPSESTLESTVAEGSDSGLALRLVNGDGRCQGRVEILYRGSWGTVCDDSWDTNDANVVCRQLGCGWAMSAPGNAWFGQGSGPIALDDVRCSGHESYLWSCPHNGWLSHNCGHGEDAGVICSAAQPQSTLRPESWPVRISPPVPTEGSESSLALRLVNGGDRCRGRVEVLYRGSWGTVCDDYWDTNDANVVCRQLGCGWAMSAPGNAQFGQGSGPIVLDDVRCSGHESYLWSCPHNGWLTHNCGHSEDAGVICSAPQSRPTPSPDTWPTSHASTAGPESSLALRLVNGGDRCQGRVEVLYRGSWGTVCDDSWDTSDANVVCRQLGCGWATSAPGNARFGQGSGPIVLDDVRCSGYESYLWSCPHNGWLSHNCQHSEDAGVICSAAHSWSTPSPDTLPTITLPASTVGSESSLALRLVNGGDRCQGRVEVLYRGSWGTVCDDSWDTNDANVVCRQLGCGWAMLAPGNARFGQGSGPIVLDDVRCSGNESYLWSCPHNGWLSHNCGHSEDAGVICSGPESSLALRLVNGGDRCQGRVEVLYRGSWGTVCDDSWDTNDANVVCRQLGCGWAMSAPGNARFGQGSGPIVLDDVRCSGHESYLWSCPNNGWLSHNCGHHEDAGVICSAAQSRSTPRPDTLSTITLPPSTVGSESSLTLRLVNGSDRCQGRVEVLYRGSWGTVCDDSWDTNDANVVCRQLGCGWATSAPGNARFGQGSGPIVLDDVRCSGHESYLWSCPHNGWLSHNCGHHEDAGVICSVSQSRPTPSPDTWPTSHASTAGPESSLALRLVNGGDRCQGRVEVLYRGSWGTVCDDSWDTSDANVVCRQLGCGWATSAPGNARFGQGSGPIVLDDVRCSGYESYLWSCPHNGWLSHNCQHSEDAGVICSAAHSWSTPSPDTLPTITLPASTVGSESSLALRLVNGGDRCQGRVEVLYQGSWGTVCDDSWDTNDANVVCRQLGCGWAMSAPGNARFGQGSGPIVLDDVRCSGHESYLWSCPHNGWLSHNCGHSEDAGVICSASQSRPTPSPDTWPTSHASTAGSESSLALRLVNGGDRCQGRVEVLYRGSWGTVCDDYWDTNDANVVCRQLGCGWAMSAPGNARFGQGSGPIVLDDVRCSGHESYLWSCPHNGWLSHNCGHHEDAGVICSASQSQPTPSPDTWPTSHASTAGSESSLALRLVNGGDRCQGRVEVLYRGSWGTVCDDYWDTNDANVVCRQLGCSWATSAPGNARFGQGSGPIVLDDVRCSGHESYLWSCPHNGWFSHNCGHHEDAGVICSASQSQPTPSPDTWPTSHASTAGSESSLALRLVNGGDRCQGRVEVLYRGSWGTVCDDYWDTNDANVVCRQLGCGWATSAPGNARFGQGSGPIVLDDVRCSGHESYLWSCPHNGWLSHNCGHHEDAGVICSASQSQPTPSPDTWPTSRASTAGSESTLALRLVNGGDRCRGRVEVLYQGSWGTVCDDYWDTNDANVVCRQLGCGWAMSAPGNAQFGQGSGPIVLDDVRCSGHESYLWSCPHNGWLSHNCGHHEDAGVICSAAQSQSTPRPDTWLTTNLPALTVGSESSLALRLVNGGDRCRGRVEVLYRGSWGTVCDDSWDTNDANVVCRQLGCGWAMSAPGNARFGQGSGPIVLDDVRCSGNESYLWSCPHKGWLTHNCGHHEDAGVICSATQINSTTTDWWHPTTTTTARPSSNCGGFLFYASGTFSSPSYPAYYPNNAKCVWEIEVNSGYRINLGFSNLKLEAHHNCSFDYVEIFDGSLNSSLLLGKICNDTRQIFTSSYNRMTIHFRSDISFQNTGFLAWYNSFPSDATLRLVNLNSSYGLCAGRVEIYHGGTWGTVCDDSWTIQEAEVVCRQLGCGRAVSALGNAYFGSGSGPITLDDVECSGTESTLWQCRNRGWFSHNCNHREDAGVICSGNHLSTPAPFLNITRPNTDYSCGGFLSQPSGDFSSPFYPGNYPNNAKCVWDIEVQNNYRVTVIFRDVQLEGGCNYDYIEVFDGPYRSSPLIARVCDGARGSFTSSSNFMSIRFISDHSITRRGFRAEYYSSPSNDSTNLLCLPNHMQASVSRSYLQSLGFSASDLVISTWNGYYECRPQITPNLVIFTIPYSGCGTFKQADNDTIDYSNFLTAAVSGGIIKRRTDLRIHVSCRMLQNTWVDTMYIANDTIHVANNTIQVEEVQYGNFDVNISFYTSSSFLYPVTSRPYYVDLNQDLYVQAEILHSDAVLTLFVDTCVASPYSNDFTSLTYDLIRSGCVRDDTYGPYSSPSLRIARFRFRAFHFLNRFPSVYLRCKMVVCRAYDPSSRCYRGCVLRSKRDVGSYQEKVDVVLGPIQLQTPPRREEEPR
Put plainly: Effects of DSS and dextran on rDMBT1 binding to HIV-gp120. The settings on record: 100 μg/ml DSS or dextran; rDMBT1 2 μg/ml; gp120 1 μg/ml. The source says:
Values are means of five independent experiments.

For the compound `OC[C@H]1O[C@H](O[C@H]2[C@H](O)[C@@H](O)C(O)O[C@@H]2CO)[C@H](O)[C@@H](O)[C@@H]1O` (mixture of isomers) [Maltose], on DMBT1pbs1 (substance 1-500 mM, pH co), the “Aggregation of E. coli” value was “+++” and the “Aggregation of S. gordonii” value is on record as “+++”.

For `CN=[N+](C)[O-]` [Azoxymethane (AOM), Azoxymethane], on DMBT1pbs1 (substance 1-500 mM, pH co), the “Aggregation of E. coli” value is on record as “+++” and the “Aggregation of S. gordonii” value is “+++”.

As for `[Ba+2].[OH-].[OH-]` [BaOH], at DMBT1pbs1 (substance 5-50 mM, pH co), the “Aggregation of E. coli” value is “+++” and the “Aggregation of S. gordonii” value was “+++”.

Consider `NC(=O)CC[C@H](N)C(=O)O` [Glutamine], for which, at DMBT1pbs1 (substance 1-250 mM, pH co), the “Aggregation of E. coli” value is given as “+++” and the “Aggregation of S. gordonii” value is reported as “+++”.

On to `O=P([O-])([O-])O.[K+].[K+]` [K2HPO4], for which, on DMBT1pbs1 (substance 1 mM, pH co), the “Aggregation of E. coli” value is given as “++” and the “Aggregation of S. gordonii” value was “++”.

Turning to `O=P([O-])(O)O.[K+]` [KH2 PO4], on DMBT1pbs1 (substance 1-10 mM, pH co), the “Aggregation of E. coli” value is listed as “+” and the “Aggregation of S. gordonii” value is listed as “+”.

With `O=[N+]([O-])[O-].[K+]` [KNO3], the “Aggregation of E. coli” value is “+” on DMBT1pbs1 (substance 500 mM, pH co) and “+++” on DMBT1pbs1 (substance 1-100 mM, pH co). Also, the “Aggregation of S. gordonii” value at DMBT1pbs1 (substance 500 mM, pH co) is “+”; on DMBT1pbs1 (substance 1-100 mM, pH co), “+++”.

As for `CCN(CC)N=O` [N-nitrosodiethylamine (DEN), N-nitrosodiethylamine], the “Aggregation of E. coli” value is reported as “+++” on DMBT1pbs1 (substance 1-50 mM, pH co) and “++” at DMBT1pbs1 (substance 100-500 mM, pH co). The “Aggregation of S. gordonii” value on DMBT1pbs1 (substance 1-50 mM, pH co) is “+++”; at DMBT1pbs1 (substance 100-500 mM, pH co), “++”.

Take `O=S(=O)([O-])[O-].[Na+].[Na+]` [Na2SO4]: at DMBT1pbs1 (substance 1 mM, pH co), the “Aggregation of E. coli” value is listed as “+” and the “Aggregation of S. gordonii” value is recorded as “+”. Also, at DMBT1pbs1 (substance 50-500 mM, pH co), the “Aggregation of E. coli” value is “−” and the “Aggregation of S. gordonii” value was “−”.

In the case of `O=P([O-])([O-])[O-].[Na+].[Na+].[Na+]` [Na3PO4], on DMBT1pbs1 (substance 1 mM, pH co), the “Aggregation of E. coli” value is reported as “++” and the “Aggregation of S. gordonii” value is given as “++”.

`[Cl-].[Na+]` [NaCL]: on DMBT1pbs1, the “Aggregation of E. coli” value is “+++ and +”; the “Aggregation of S. gordonii” value is “+++ and +”.

As to `[Na+].[OH-]` [NaOH], on DMBT1pbs1 (substance 5-50 mM, pH co), the “Aggregation of E. coli” value is reported as “+++” and the “Aggregation of S. gordonii” value was “+++”.

Take `OC[C@H]1O[C@@](CO)(O[C@H]2O[C@H](CO)[C@@H](O)[C@H](O)[C@H]2O)[C@@H](O)[C@@H]1O` [Sucrose]: on DMBT1pbs1 (substance 1-500 mM, pH co), the “Aggregation of E. coli” value is “+++” and the “Aggregation of S. gordonii” value was “+++”.

With `Nc1ncnc2c1ncn2[C@H]1C[C@H](O)[C@@H](COP(=O)(O)OP(=O)(O)OP(=O)(O)O)O1` [dATP], on DMBT1pbs1 (substance 1-8 mM, pH co), the “Aggregation of E. coli” value is “++” and the “Aggregation of S. gordonii” value is recorded as “++”.

On to `Nc1ccn([C@H]2C[C@H](O)[C@@H](COP(=O)(O)OP(=O)(O)OP(=O)(O)O)O2)c(=O)n1` [dCTP], for which, at DMBT1pbs1 (substance 1-8 mM, pH co), the “Aggregation of E. coli” value is listed as “++” and the “Aggregation of S. gordonii” value is listed as “++”.

Turning to `Nc1nc2c(ncn2[C@H]2C[C@H](O)[C@@H](COP(=O)(O)OP(=O)(O)OP(=O)(O)O)O2)c(=O)[nH]1` [dGTP], at DMBT1pbs1 (substance 1-8 mM, pH co), the “Aggregation of E. coli” value is given as “++” and the “Aggregation of S. gordonii” value is recorded as “++”.

In the case of `Cc1cn([C@H]2C[C@H](O)[C@@H](COP(=O)(O)OP(=O)(O)OP(=O)(O)O)O2)c(=O)[nH]c1=O` [dTTP], at DMBT1pbs1 (substance 1-8 mM, pH co), the “Aggregation of E. coli” value is on record as “++” and the “Aggregation of S. gordonii” value is listed as “++”.

Turning to Aprolinin, at DMBT1pbs1 (substance 1-5 mg/ml, pH co), the “Aggregation of E. coli” value was “+++” and the “Aggregation of S. gordonii” value is “+++”.

In the case of Chondroitin sulfate B, at DMBT1pbs1 (substance 1-5 mg/ml, pH co), the “Aggregation of E. coli” value is listed as “−” and the “Aggregation of S. gordonii” value is given as “−”.

As to “DMBT1: purified DMBT1 from saliva (salivary agglutinin)”, the “binding of Salmonella typhimurium chemotypes” value in the assay with Salmonella typhimurium is “Enhanced binding of the Rd1 and Re chemotype”.

Heparan sulfate: at DMBT1pbs1 (substance 1-5 mg/ml, pH co), the “Aggregation of E. coli” value is recorded as “−” and the “Aggregation of S. gordonii” value was “−”.

In the case of “NH2-QGRVEVLYRGSWGTVC-COOH (H-QGRVEVLYRGSWGTVC-OH) [DMBT1-SRCRP2]”, the “binding of Salmonella typhimurium chemotypes” value in the assay with Salmonella typhimurium is “Enhanced binding of the Rd1 and Re chemotype”.

Regarding dextran, the “inhibition of rDMBT1 binding to immobilized HIV-gp120” value in assay [1] was “but not dextran, which lacks the sulfate groups, exerted an inhibitory effect”.
